Source: patent US4766141A, “Spiro-succinimides for treatment of diabetes complications” (Pfizer Inc., priority 1987, dated 1988)

Tests used:
[1] = Titration with 0.5 N sodium hydroxide (pKa); type: physicochemical
Experimental: A. 12.5 g. of crude 5-carboxy-3-cyano-3-(3-fluorophenyl)-5-methylhexanoic acid dimethyl ester was combined with 62.5 ml. of concentrated sulfuric acid and was heated at 70° C. for 2.5 hours. The reaction was quenched over ice and extracted with three-100 ml. portions of ethyl acetate. The ethyl acetate solution was extracted with pH 11 aqueous sodium hydroxide. The aqueous base layer was washed with ethyl acetate, and the aqueous layer was adjusted to pH 2 with hydrochloric acid and extracted with four-100 ml. portions of ethyl acetate. After drying over anhydrous sodium sulfate, the ethyl acetate extract was concentrated in vacuo to an oil and eventually to a white foam. This was triturated for 20 hours with isopropyl alcohol-diethyl ether to give, after drying at 110° C. at reduced pressure, 610 mg. of the title compound, m.p. 200°-202° C. (shrinks), 212°-215° C. (decomp.). Anal. (C14 H12 O3 NF). Calcd. C,64.36; H,4.63; N,5.36. Found: C,64.25; H,4.60; N,5.42. IR(KBr): 3228, 1723, 1705, 1692, 1605, 1343, 1236, 1199, 1186 cm^-1. NMR 250 MHZ (CD3 SOCD3):δ11.7 (vbs, 1, NH), 7.97(m, 1), 7.31(m, 1 ), 7.13(m, 1), 3.5-2.1(m, 5), and 1.16(d, 3) ppm. […] This experiment defines the structure of the major diasteromer as the title spiro[naphthalene pyrrolidine]trione rather than the alternate indanone spiro-methyl glutarimide cyclization product. […]

[2] = test system: sorbitol accumulation in the sciatic nerve and lens of diabetic rats; assay: Inhibition of sorbitol accumulation in sciatic nerve and lens of streptozotocin-diabetic rats; type: in vivo; conditions: sacrifice at 27 h, relative to control
Experimental: Rel 1,3'S,3R Spiro[naphthalene-1(4H),3'-pyrrolidine]-2', 4,5'-trione-2,3-dihydro-7-fluoro-3-methyl, the product prepared according to the procedure of Example 1B, was tested for its ability to reduce or inhibit sorbitol accumulation in the sciatic nerve and lens of diabetic rats. This was done by following the procedure described by M. J. Peterson et al. in Metabolism, Vol. 28, No. 4, Suppl. 1, p. 456 (1979). A single intravenous dose of streptozotocin (85 mg./kg.) was administered to rats. The test compound was fed to the rats orally at four, seven and 24 hours after the administration of the streptozotocin. At 27 hours after streptozotocin administration, the animals were sacrificed and the sciatic nerve and lens were both removed for sorbitol assay. The control animals were given the same streptozotocin treatment, but were not given the test compound. The results obtained are expressed in terms of percent inhibition of sorbitol (i.e., relative to the control) afforded by the test compound in both the sciatic nerve and lens at three different dosage levels tested (viz., 2.5, 1.5 and 1.0 mg./kg.).

[3] = biological target: T1, aldose reductase obtained from human placenta (Homo sapiens, UniProt P15121); assay: Inhibition of aldose reductase obtained from human placenta; type: biochemical; conditions: relative to activity in absence of inhibitor, read-out: percent inhibition of aldose reductase enzyme activity
T1 construct: aldose reductase obtained from human placenta; from tissue; host or cells: human placenta
Experimental: Rel 1,3'S,3R Spiro[naphthalene-1(4H),3'-pyrrolidine]-2',4,5'-trione-2,3-dihydro-7-fluoro-3-methyl, the product prepared according to the procedure of Example 1B, was tested for inhibition of aldose reductase obtained from human placenta by using the procedure described by M. J. Peterson et al. in Metabolism, Vol. 28, No. 4, Suppl. 1, p. 456 (1979). The results obtained are expressed in terms of the percent inhibition of aldose reductase enzyme activity (i.e., relative to the aldose activity in the absence of inhibitor) afforded by the compound at three different molar concentration levels (viz., 10^-5, 10^-6 and 10^-7 M).

C[C@@H]1C[C@]2(CC(=O)NC2=O)c2cc(F)ccc2C1=O (relative stereo) [Example 1, Rel 1,3'S, 3R Spiro[naphthalene-1(4H), 3'-pyrrolidine]-2', 4,5'-trione-2,3-dihydro-7-fluoro-3-methyl]
pKa ([1]; in 1:1 dioxane-water): 9.59
pKa ([1]; in water): 8.25
percent inhibition of sorbitol ([2]; lens, 1.0 mg./kg. oral at 4, 7 and 24 h after streptozotocin): 39%
percent inhibition of sorbitol ([2]; lens, 1.5 mg./kg. oral at 4, 7 and 24 h after streptozotocin): 39%
percent inhibition of sorbitol ([2]; sciatic nerve, 1.0 mg./kg. oral at 4, 7 and 24 h after streptozotocin): 69%
percent inhibition of sorbitol ([2]; sciatic nerve, 1.5 mg./kg. oral at 4, 7 and 24 h after streptozotocin): 76%
inhibition at 10 µM ([3]; 10^-5 M): 78%
inhibition at 1 µM ([3]; 10^-6 M): 41%
inhibition at 0.1 µM ([3]; 10^-7 M): 3%
